One compound from publication PMC10461224, “Development of an Affinity-Based Probe to Profile Endogenous Human Adenosine A3 Receptor Expression” (Journal of Medicinal Chemistry, 2023) can be followed below.

Assay [1] addresses T1, hA3AR (Homo sapiens, UniProt P0DMS8).
T1 construct: expressed in transfected cells; host or cells: CHO cells (CHOhA3AR), gift of Prof; K.N. Klotz, University of Würzburg; used as membrane fractions or live cells
T1 sequence (P0DMS8 1-318): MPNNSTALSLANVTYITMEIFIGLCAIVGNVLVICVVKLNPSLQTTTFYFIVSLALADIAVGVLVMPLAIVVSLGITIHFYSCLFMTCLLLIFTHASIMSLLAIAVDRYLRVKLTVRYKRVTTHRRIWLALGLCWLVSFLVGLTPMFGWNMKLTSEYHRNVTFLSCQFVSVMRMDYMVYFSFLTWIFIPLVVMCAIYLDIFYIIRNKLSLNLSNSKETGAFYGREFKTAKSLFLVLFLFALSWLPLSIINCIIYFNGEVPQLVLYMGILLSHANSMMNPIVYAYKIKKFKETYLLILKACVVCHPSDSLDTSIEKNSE
The assay can be described thus: SDS-PAGE labeling on live CHO cells. The settings on record: 50 nM, 1 h, 37 °C; signal reduced by PSB-11. The assay is classed as cell-based. On the procedure: CHOhA3AR and CHO-K1 cells were cultured as mentioned above. Cells were grown to ∼90% confluency in 10 cm φ plates. 10 plates were used per condition per experiment. The medium was removed, and the competing ligand (PSB-11, unless noted otherwise) in medium (final concentration: 1 μM) was added. Cells were incubated for 1 h (37 °C, 5% CO2). The medium was removed, and the affinity-based probe (final concentration: 50 nM in medium) was added. The cells were incubated for 1 h (37 °C, 5% CO2) and washed with PBS to get rid of all the non-bound probes. Subsequently, the membranes were prepared and collected using the procedure as described above. Membrane aliquots were diluted to a concentration of 1 μg/μL, and 20 μL was taken per sample. PNGase (0.5 μL, 5 U) or MilliQ was added, and the samples were incubated for 1 h at rt. Next, the click mix was freshly prepared by adding together 5 parts 100 mM CuSO4 in MilliQ, 3 parts 1 M NaAsc in MilliQ, 1 part 100 mM THPTA in MilliQ, and 1 part 100 μM Cy5-N3 in DMSO. […] In-gel fluorescence was measured on a Bio-Rad Universal Hood III using Cy3 (605/50 filter) or Cy5 (695/55 filter) settings. […]
Gel images were analyzed using Image Lab software version 6.0.1 (Bio-Rad). Quantification was done in the following manner: the area under the curve (AUC) of the bands was selected using the ‘Lane Profile’ tab and the adjusted volumes were taken. […]

In assay [2] the target is T1, hA3AR. The assay can be described thus: Confocal microscopy labeling on CHO cells, click to TAMRA-N3. In kind it is cell-based. As to conditions: 50 nM, 60 min, versus vehicle, PSB-11 pre-incubation and CHO-K1. As for the experimental part:
CHOhA3AR and CHO-K1 cells were cultured in a 96-well plate. Upon reaching a confluency of about 90%, the medium was replaced by medium containing PSB-11 (final concentration: 1 μM) or 1% DMSO (control) and the cells were pre-incubated for 30 min (37 °C and 5% CO2). The medium was then replaced with medium containing 9 (final concentration: 50 nM) or 1% DMSO (vehicle), and the cells were incubated for 60 min (37 °C and 5% CO2). The cells were washed with PBS to remove unbound probe and afterward fixed using a 4% PFA in 10% formalin solution (15 min, rt). The remaining fixative was removed by washing with PBS and subsequently with 20 mM glycine in PBS. The cells were permeabilized by incubation in 0.1% saponin in PBS (10 min, rt). Remaining saponin was removed by a PBS wash, and the cells were stored at 4 °C until further usage. At the day of imaging, PBS was removed and the cells were incubated for 1 h in freshly prepared click mix (100 μL 100 mM CuSO4 in MilliQ, 100 μL 1 M NaAsc in MilliQ, 100 μL […] in MilliQ, 9.66 mL HEPES pH 7.4, and 40 μL 1 mM TAMRA-N3 in DMSO, added in the respective order). […]
CellProfiler (version 2.2.0) was used to create a binary image of the DAPI channel and to propagate the cytoplasmic area based on the DAPI binary. An overlay of the binary cytoplasm/TAMRA channel was generated to quantify per segmented pixel the TAMRA intensity. […]

On to `C#CCOc1ccn2c(c1)nc1c2c(=O)n(CCC)c(=O)n1CCCNC(=O)c1ccc(S(=O)(=O)F)cc1` [compound 9, 4-((3-(2,4-Dioxo-8-(prop-2-yn-1-yloxy)-3-propyl-3,4-dihydropyrido[2,1-f]purin-1(2H)-yl)propyl)carbamoyl)benzenesulfonyl fluoride], for which, at hA3AR [1], the “labeling of hA3AR on live CHO cells (SDS-PAGE)” value was “binds and labels the hA3AR on live cells”. The “integrated TAMRA fluorescence intensity” value at hA3AR [2] was “significant increase in intensity”.
